Consider eleven compounds from ChEMBL document CHEMBL1201862, “PubChem BioAssay data set” (2004).

SMILES strings stand for the structures.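 Dose response: 5 concentrations. Exposure: 48 h. Format: 96-well plates. Endpoint: linear interpolation; highest concentration if not reached. At the GI50, growth is halved.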 Active and inactive are the calls of the source. Cut-off read from the data, not from the text of the source: active = GI50 up to about 1.1 µM and inactive = higher.

Some test systems named below: MOLT-4; OVCAR-5; UO-31; NCI-H23; HCT-116; A549; UACC-62; SNB-19; HOP-92; DU-145; PC-3; T47D; OVCAR-4; K562; ACHN; MDA-N; BT-549; KM12; COLO 205; SR.
What all share (assay): NCI anticancer screen, dose series, 48 h

With `CCOC(=O)C(C)(C)Oc1ccc(Cl)cc1` [CLOFIBRATE], the GI50 in the experiment on MOLT-4 was 161 µM (inactive); with OVCAR-5, 446 µM (inactive); in the experiment on UO-31, 726 µM (inactive); with NCI-H23, 303 µM (inactive); in the experiment with HCT-116 it was 214 µM (inactive); in the experiment on A549, 432 µM (inactive). Also, the GI50 was 514 µM (inactive) with UACC-62; > 1000 µM (inactive) in the experiment with SNB-19; 177 µM (inactive) with HOP-92; 935 µM (inactive) in the experiment with DU-145; 359 µM (inactive) in the experiment with PC-3; 202 µM (inactive) in the experiment on T47D. Further, the GI50 in the experiment with OVCAR-4 is 322 µM (inactive); with K562, > 1000 µM (inactive); in the experiment with ACHN, > 1000 µM (inactive); in the experiment with MDA-N, 566 µM (inactive); with BT-549, > 1000 µM (inactive); in the experiment with KM12, 324 µM (inactive). For the same compound, the GI50 with COLO 205 is 202 µM (inactive).

Regarding `CC(=O)/C(=C\I)c1ccccc1`, the GI50 in the experiment with MOLT-4 is 1.89 µM (inactive); with SR it was 1.49 µM (inactive); in the experiment on OVCAR-5, 1.49 µM (inactive); in the experiment with UO-31, 3.85 µM (inactive); with NCI-H23, 2.23 µM (inactive); in the experiment on HCT-116 it was 2.26 µM (inactive). The GI50 is 15.7 µM (inactive) in the experiment on A549; 1.77 µM (inactive) with UACC-62; 12.1 µM (inactive) with SNB-19; 2.45 µM (inactive) in the experiment on HOP-92; 3.38 µM (inactive) in the experiment on DU-145; 2.51 µM (inactive) in the experiment with PC-3. Also, the GI50 was 1.69 µM (inactive) with T47D; 0.481 µM (active) with K562; 1.62 µM (inactive) with MDA-N; 1.83 µM (inactive) in the experiment with BT-549; 3.57 µM (inactive) in the experiment on KM12; 1.71 µM (inactive) in the experiment on COLO 205.

On to `CC1=C(C(=O)NNC(=O)c2ccccc2)CC(C(=O)NNC(=O)c2ccccc2)=C(C)N1`, for which the GI50 with MOLT-4, with OVCAR-5, with UO-31, in the experiment on NCI-H23, with HCT-116 and with A549 was > 100 µM (inactive) each time. The GI50 in the experiment with UACC-62, in the experiment with SNB-19, in the experiment on HOP-92, in the experiment on DU-145, in the experiment on PC-3 and with T47D was > 100 µM (inactive) each time. Moreover, the GI50 with OVCAR-4, with K562, in the experiment on ACHN, in the experiment on MDA-N, in the experiment on BT-549 and with KM12 was > 100 µM (inactive) in each case. Besides, the GI50 in the experiment with COLO 205 is > 100 µM (inactive).

For `O=C(c1ccccc1)C1C(C(=O)c2ccccc2)N1Cc1ccccc1` (stereo unspecified), the GI50 in the experiment with MOLT-4 is 40.6 µM (inactive); in the experiment with OVCAR-5, > 100 µM (inactive); in the experiment on UO-31, 36.8 µM (inactive); in the experiment with NCI-H23, 37.8 µM (inactive); in the experiment with A549 it was 24.2 µM (inactive); with UACC-62 it was 15.7 µM (inactive). For the same compound, the GI50 in the experiment with SNB-19 was 37 µM (inactive); in the experiment on HOP-92 it was 26 µM (inactive); in the experiment with DU-145, 24.4 µM (inactive); with PC-3, 23.4 µM (inactive); in the experiment on T47D, 11.6 µM (inactive); with OVCAR-4, 39.9 µM (inactive). Besides, the GI50 with K562 is 27.9 µM (inactive); in the experiment on ACHN, 41.9 µM (inactive); in the experiment on MDA-N it was 13.5 µM (inactive); in the experiment on BT-549, 25.9 µM (inactive); in the experiment on KM12, 27.8 µM (inactive); with COLO 205, 24.3 µM (inactive).

Turning to `C1=Nc2sc3c(c2C2=NCCN12)CCCC3`, the GI50 was 13.8 µM (inactive) in the experiment on MOLT-4; 21.2 µM (inactive) in the experiment on SR; 18.2 µM (inactive) in the experiment on OVCAR-5; 16.3 µM (inactive) in the experiment with UO-31; 15.6 µM (inactive) in the experiment on NCI-H23; 16.3 µM (inactive) in the experiment on HCT-116. For the same compound, the GI50 is 15.4 µM (inactive) in the experiment on UACC-62; 18.4 µM (inactive) with SNB-19; 16.3 µM (inactive) in the experiment with DU-145; 16.7 µM (inactive) in the experiment on PC-3; 17.7 µM (inactive) in the experiment with T47D; 20.6 µM (inactive) with OVCAR-4. The GI50 was 22.4 µM (inactive) with K562; 17.1 µM (inactive) with ACHN; 20.1 µM (inactive) with MDA-N; 15.2 µM (inactive) in the experiment with BT-549; 17.2 µM (inactive) in the experiment on KM12; 23.3 µM (inactive) in the experiment on COLO 205.

Turning to `CCOC(=O)c1nc2ccccc2nc1Nc1ccc(OC)c(OC)c1`, the GI50 with MOLT-4, in the experiment with SR, with OVCAR-5, in the experiment with UO-31, in the experiment on NCI-H23 and in the experiment with HCT-116 was > 100 µM (inactive) throughout. The GI50 in the experiment with A549 was > 100 µM (inactive); in the experiment on UACC-62, > 100 µM (inactive); in the experiment on SNB-19, > 100 µM (inactive); with HOP-92, 62.7 µM (inactive); in the experiment with DU-145 it was > 100 µM (inactive); with T47D, > 100 µM (inactive). The GI50 with OVCAR-4, with K562, in the experiment on ACHN, in the experiment with MDA-N, in the experiment with BT-549 and in the experiment with KM12 was > 100 µM (inactive) throughout. The GI50 in the experiment with COLO 205 is > 100 µM (inactive).

`CCN(CC)CCC(=O)c1ccc(Sc2ccc(F)cc2)cc1`: the GI50 in the experiment on MOLT-4 is 15.1 µM (inactive); in the experiment on SR, 12.9 µM (inactive); with OVCAR-5, 19.7 µM (inactive); in the experiment on UO-31, 17.8 µM (inactive); in the experiment with NCI-H23 it was 17.7 µM (inactive); with HCT-116 it was 18.2 µM (inactive). The GI50 is > 100 µM (inactive) in the experiment with A549; 16.2 µM (inactive) with UACC-62; 17.6 µM (inactive) in the experiment with SNB-19; 18.9 µM (inactive) with DU-145; 17.1 µM (inactive) in the experiment with PC-3; 21.2 µM (inactive) in the experiment with T47D. Besides, the GI50 is 20.1 µM (inactive) with OVCAR-4; 52.8 µM (inactive) in the experiment with K562; 18.3 µM (inactive) in the experiment on ACHN; 25 µM (inactive) with MDA-N; 17.2 µM (inactive) in the experiment with BT-549; 15.7 µM (inactive) with KM12. Besides, in the experiment on COLO 205, the GI50 is 21.1 µM (inactive).

Consider `Clc1ccc(Nc2nnc(CNc3ccc(-c4nnc(Nc5ccc(Cl)cc5)o4)cc3)o2)cc1`, for which the GI50 with MOLT-4 was 6.35 µM (inactive); in the experiment with OVCAR-5, 19.6 µM (inactive); in the experiment with UO-31 it was 14.5 µM (inactive); with NCI-H23, 15.9 µM (inactive); in the experiment with HCT-116, 12.2 µM (inactive); in the experiment with A549, 13.6 µM (inactive). Further, the GI50 was 13.6 µM (inactive) in the experiment on UACC-62; 18.7 µM (inactive) in the experiment on SNB-19; 23.9 µM (inactive) with HOP-92; 12.7 µM (inactive) in the experiment with DU-145; 11.8 µM (inactive) in the experiment on PC-3; 24.6 µM (inactive) with T47D. In addition, the GI50 is 17.4 µM (inactive) with OVCAR-4; 0.504 µM (active) in the experiment with K562; 17.1 µM (inactive) in the experiment on ACHN; 14.3 µM (inactive) in the experiment on MDA-N; 17.7 µM (inactive) in the experiment on BT-549; 8.36 µM (inactive) in the experiment on KM12. In addition, in the experiment with COLO 205, the GI50 was 19.8 µM (inactive).

For the compound `CCOP(=O)(OCC)OC1CC(n2cnc3c(N(CC)CC)ncnc32)OC1CO[Si](C)(C)C(C)(C)C` (stereo unspecified), the GI50 was 11.2 µM (inactive) in the experiment on MOLT-4; 31.3 µM (inactive) with SR; 19 µM (inactive) in the experiment with OVCAR-5; 19.1 µM (inactive) in the experiment on UO-31; 17 µM (inactive) with NCI-H23; 16.8 µM (inactive) in the experiment on HCT-116. Further, the GI50 is 15.7 µM (inactive) in the experiment on A549; 14.8 µM (inactive) in the experiment on UACC-62; 18.2 µM (inactive) in the experiment with SNB-19; 15.5 µM (inactive) in the experiment with DU-145; 12.2 µM (inactive) with PC-3; 12 µM (inactive) in the experiment on T47D. Besides, the GI50 in the experiment on OVCAR-4 was 14.1 µM (inactive); with K562 it was 17.8 µM (inactive); with ACHN, 15.3 µM (inactive); in the experiment with MDA-N it was 18 µM (inactive); in the experiment on BT-549, 16.1 µM (inactive); with KM12, 19.7 µM (inactive). Moreover, the GI50 in the experiment with COLO 205 is 18.5 µM (inactive).

In the case of `[N-]=[N+]=NC1=C(N=[N+]=[N-])c2cccc3cccc(c23)C1=O`, the GI50 in the experiment on MOLT-4 is 39.8 µM (inactive); with SR, 88.3 µM (inactive); with OVCAR-5, > 100 µM (inactive); in the experiment with UO-31 it was > 100 µM (inactive); with NCI-H23 it was > 100 µM (inactive); in the experiment with HCT-116 it was > 100 µM (inactive). Also, the GI50 in the experiment on A549, in the experiment on UACC-62, in the experiment with SNB-19, in the experiment on HOP-92, in the experiment with PC-3 and with T47D was > 100 µM (inactive) each time. Also, the GI50 in the experiment on OVCAR-4 was > 100 µM (inactive); with K562, > 100 µM (inactive); in the experiment on ACHN it was > 100 µM (inactive); in the experiment on MDA-N, < 0.01 µM (active); in the experiment with BT-549 it was > 100 µM (inactive); with KM12, 76.2 µM (inactive). In the experiment on COLO 205, the GI50 was > 100 µM (inactive).

For the compound `CCOC(=O)CC1Nc2ccccc2C12CCc1c([nH]c3ccccc13)C2C(=O)OCC` (stereo unspecified), the GI50 in the experiment on MOLT-4 was 6.1 µM (inactive); in the experiment on SR it was 17.3 µM (inactive); with OVCAR-5, > 100 µM (inactive); in the experiment on UO-31, 36.1 µM (inactive); in the experiment on NCI-H23, 51.2 µM (inactive); in the experiment with HCT-116 it was 12.9 µM (inactive). Also, the GI50 was 14.3 µM (inactive) with A549; 9.62 µM (inactive) in the experiment on UACC-62; > 100 µM (inactive) with SNB-19; > 100 µM (inactive) in the experiment with DU-145; 53.2 µM (inactive) with PC-3; 10.4 µM (inactive) with T47D. The GI50 in the experiment on OVCAR-4 was 12.3 µM (inactive); with K562 it was 34 µM (inactive); in the experiment with ACHN it was 28.6 µM (inactive); in the experiment with MDA-N, 4.65 µM (inactive); with BT-549, > 100 µM (inactive); in the experiment with KM12, 14.8 µM (inactive). For the same compound, in the experiment on COLO 205, the GI50 is 5.12 µM (inactive).
